The test system of this test is cohesin complex. Description: ChIP-Seq for RAD21 and SMC1 (cohesin binding to chromatin) with and without auxin. Format: cell-based, human. The source says: Applicants employed an auxin-inducible degron (AID) (Natsume et al., 2016) to destroy RAD21, a core component of the cohesin complex. In this system, constitutive expression of the auxin-activated ubiquitin ligase TIR1 leads, in the presence of auxin, to rapid degradation of proteins tagged with an AID domain. Applicants used this system in HCT-116, a human colorectal carcinoma cell line. This cell line had been previously modified by (Natsume et al., 2016) so that both RAD21 alleles were tagged with an AID domain and a fluorescent mClover (“RAD21-mAC”) (FIG. 1A). Applicants confirmed that RAD21-mAC was efficiently degraded after 6 hours of auxin treatment using fluorescence microscopy and ChIP (FIG. 1B, 8, see Methods), and that cohesin could no longer associate with DNA using ChIP-Seq with antibodies for SMC1, a different cohesin subunit (FIG. 1C, D).
ChIP-Seq for H3K27Ac, H3K4me1, H3K4me3, H3K36me3, H3K27me3, H3K9me3, H4K16Ac, H4K20me3, H3K79me2, and H2.AZ was performed using a native ChIP-Seq protocol. Chromatin from untreated HCT-116 RAD21-mAC cells or cells treated for 6 hours with 500 uM IAA was digested with Mnase (Sigma) in digestion buffer (50 mM Tris-HCl, pH7.6, 1 mM CaCl2), 0.2% Triton X-100, butyrate 5 mM) for 5′ at 37° C. and dialyzed against RIPA buffer for 2 hrs at 4° C. Five microgram of respective antibody was incubated with 40 μl of Dynabeads Protein A (or G) for 40 min at room temperature. Antibody-bound beads were added to 500 μl of sonicated or Mnase-digested chromatin, incubated at 4° C. overnight, and washed twice with RIPA buffer, twice with RIPA buffer containing 0.3 M NaCl, twice with LiCl buffer (0.25 M LiCl, 0.5% Igepal-630, 0.5% sodium deoxycholate), once with TE (pH 8.0) plus 0.2% Triton X-100, and once with TE (pH 8.0). ChIP DNA was purified by phenol-chloroform extraction followed by ethanol precipitation. Libraries were prepped for Illumina sequencing and 50 bp single-end reads were sequenced on a HiSeq2000 or 2500 (Illumina). Applicants also performed ChIP-Seq for RAD21 and CTCF following the same protocol as above, except that cells were fixed with 1% formaldehyde for 10 minutes at 37° C. and fixation was quenched by the addition of glycine to a final concentration of 125 mM for 10 minutes. The fixed cells were sonicated using a Branson sonifier at amplitude 35%, 12 cycles of 20 seconds of sonication and 30 seconds of pause. Antibody was added to the sonicated chromatin as above and the samples were further processed as above.
Applicants also performed ChIP-Seq for SMC1 and an additional replicate for CTCF following the protocol outlined by the ENCODE consortium (2012).
All ChIP-Seq data was aligned to hg19 with BWA […] (Li and Durbin, 2010), deduplicated using PicardTools, and analyzed with MACS 2.0 (Liu, 2014). All data was normalized against the corresponding input control using the ‘-c’ option of MACS 2.0. ChIP-Seq peaks were called using the ‘callpeak’ function of MACS 2.0 with default parameters. For H3K4me3 and H3K4me1, Applicants additionally used the ‘broad’ option of MACS 2.0 and merged close by peaks to identify broad peaks. […] Finally, in order to annotate broad-source domains, Applicants utilized RSEG (Song and Smith, 2011) using the following flags: ‘-b 25000’, ‘-i 20’, ‘-mode 2’.
Applicants also analyzed the RAD21 and SMC1 signal at all ChIP-Seq peaks called in our data from untreated cells using MACS 2.0. […]

Where [1] appears, read: average at ChIP-Seq peaks called in untreated cells.

The values that follow come from patent US20200255828A1, “METHODS AND COMPOSITIONS FOR ALTERING FUNCTION AND STRUCTURE OF CHROMATIN LOOPS AND/OR DOMAINS” (THE BROAD INSTITUTE, INC., priority 2017, published 2020).

For the molecule `O=C(O)Cc1c[nH]c2ccccc12` [auxin, indole-3-acetic acid], where the note is “6 hours auxin”, the “cohesin peaks (merged SMC1 and RAD21 ChIP-Seq calls) lost after auxin treatment” value came out at 97%. Under setting [1], the “reduction in binding strength of RAD21” value was 81% and the “reduction in binding strength of SMC1” value is listed as 75%. The “RAD21 mean enrichment in treated cells” value (untreated 12.58) worked out at 2.39. For the same molecule, for the setting “untreated 16.23”, the “SMC1 mean enrichment in treated cells” value is reported as 4.00.
